Data reported in patent US20090036418A1, “Pharmaceutical composition for treatment of cancer containing pyridylpyridazine or transition metal complex thereof as active ingredient” (priority 2005, published 2009).

Test system: XF-498 (human brain cancer)
Test: SRB assay, XF-498 cancer cell line
Format: cell-based
Conditions: brain cancer cell line of Test Example 1, SRB assay
Protocol: The pyridylpyridazine compounds prepared in Preparation Examples 1 to 5 and transition metal complexes thereof were evaluated for the anticancer activities thereof. As cancer cell lines used in the test, A549 (human lung cancer), SK-MEL-2 (human skin cancer), HCT-15 (human colon cancer), SK-OV-3 (human […]) and XF-498 (human brain cancer) among 60 kinds of cancer cell lines[Ross, D. T. et al., Systematic variation in gene expression patterns I human cancer cell lines. Nature genetics, 24, 227-235 (2000)], which are used for the search of anticancer activity in the US National Cancer Institute, were obtained from the Bioorganic Research Division, the Korea Research Institute of Chemical Technology. The anticancer activities of the cell lines were evaluated by measuring ED50 values according to the sulforhodamine B (SRB) assay described in the literature[Choi, S. et al., Cytotoxicity of trichlorothecenes to human solid tumor cells in vitro. Arch. Pharm. Res. 19, 6-11 (1996)]. […]
More specifically, the SRB assay was performed in the following manner. […] After completion of the culture, each well was well washed, treated with 150 μl (10 mM) of unbuffer ED Tris solution to dissolve out the SRB dye, and then measured for absorbance at 520 nm using a reader for 96-well plates. […]

For `c1ccc(-c2ccc(-c3ccccn3)nn2)nc1` [Compound of Preparation Example 1, 3,6-bis(2′-pyridyl)pyridazine], the “anticancer activity against the brain cancer cell line (in words)” value was “high anticancer activity”.

In the case of “[3,6-bis(6′-methyl-2′-pyridyl)pyridazine]zinc(II) chloride [Compound of Preparation Example 4]”, the “anticancer activity against the brain cancer cell line (in words)” value is reported as “excellent anticancer activity”.
